The text below walks through data of US11040947B2, “Substituted quinazolines as matrix metalloproteinase-9 hemopexin domain inhibitors” (The Research Foundation for The State University of New York, priority 2017, dated 2021).

Bounds are passed on as bounds.

Series [1] concerns proMMP9-mediated migration of COS-1 cells. Nature of the series: two-dimensional collagen dot migration assay, COS-1 cells overexpressing proMMP-9. The format is cell-based. To be noted: 50 μM, 18 hours; for inhibition at 50 µM: Chlorocebus aethiops.
Protocol: This assay was initially used to test the efficacy of analogs at a single concentration, 50 μM.
Cells were mixed with type I collagen solution with or without compound, dotted onto a 96-well plate, and allowed to migrate for 18 hours. They were then fixed, stained and scored for extent of migration.
Another series addresses T1, proMMP-9 (Homo sapiens, UniProt P14780).
T1 construct: Purified recombinant MMP-9 (50 nmol/L) or MMP-9/MMP-2PEX (50 nmol/L) was diluted in buffer
Nature of the series: proMMP-9 tryptophan fluorescence blue shift binding assay. The conditions noted are these: binding to proMMP-9, tryptophan fluorescence.

Series [2] concerns MMP-9 at the cell surface of HT1080 cells. Description: MMP-9 cell surface localization, immunofluorescence in HT1080 cells. The format is cell-based, Human. The procedure:
HT1080 cells were fixed in 4% paraformaldehyde then subsequently incubated with anti-MMP-9 in addition to anti-α4 and/or β1 integrin antibodies to monitor relative levels of localization of these proteins at the cell surface. The cells were counterstained with DAPI nuclear dye.

The subject of a further series is HT1080 cells. Nature of the series: cell adhesion to collagen or fibronectin coated plate. It is filed as cell-based, Human. The conditions noted are these: 37° C. 30 min. The procedure:
A 96-well plate was coated with a thin layer of either collagen or fibronectin (5 μg/ml in PBS) substrate before use. HT1080 cells were then seeded onto wells and incubated at 37° C. for 30 min in the presence of various inhibitors. Wells were washed and cells were fixed in 4% paraformaldehyde and stained with DAPI. Images of each 96-well were microscopically captured and counted for the number of cells still adherent to the coated surface using automated computer software.

Series [3] relates to COS-1 cells stably expressing vector control or proMMP-9. Nature of the series: acute cytotoxicity in COS-1 cells. It is filed as cell-based. The conditions noted are these: 100 nM staurosporine (positive control), 24 hours. How it is done:
Compound 3c was evaluated for acute cytotoxicity. COS-1 cells stably expressing either vector control or proMMP-9 cDNA were treated with 50 μM 3c for 24 hours. As negative and positive controls, cells were treated with DMSO alone or 100 nM staurosporine (STS), an apoptosis inducer, respectively. […] A non-statistically significant 8% decrease in cell growth occurred after treatment with 50 μM of compound 3c. These experiments were repeated in endogenous MMP-9 expressing HT1080 fibrosarcoma cells, which were analyzed for chronic toxicity (cells were re-treated every three days for a total of nine days).

In series [4] the test system is FAK and PAX adhesion junctions in HT1080 cells. Nature of the series: focal adhesion complexes, immunofluorescence in HT1080 cells. It is filed as cell-based, Human. The conditions noted are these: 80 nM, p-FAK and p-PAX.
In series [5] the target is T2, APMA-activated recombinant proMMP-9 (Homo sapiens, UniProt P14780).
T2 construct: made in house
T2 sequence (P14780 107-707 limits assumed): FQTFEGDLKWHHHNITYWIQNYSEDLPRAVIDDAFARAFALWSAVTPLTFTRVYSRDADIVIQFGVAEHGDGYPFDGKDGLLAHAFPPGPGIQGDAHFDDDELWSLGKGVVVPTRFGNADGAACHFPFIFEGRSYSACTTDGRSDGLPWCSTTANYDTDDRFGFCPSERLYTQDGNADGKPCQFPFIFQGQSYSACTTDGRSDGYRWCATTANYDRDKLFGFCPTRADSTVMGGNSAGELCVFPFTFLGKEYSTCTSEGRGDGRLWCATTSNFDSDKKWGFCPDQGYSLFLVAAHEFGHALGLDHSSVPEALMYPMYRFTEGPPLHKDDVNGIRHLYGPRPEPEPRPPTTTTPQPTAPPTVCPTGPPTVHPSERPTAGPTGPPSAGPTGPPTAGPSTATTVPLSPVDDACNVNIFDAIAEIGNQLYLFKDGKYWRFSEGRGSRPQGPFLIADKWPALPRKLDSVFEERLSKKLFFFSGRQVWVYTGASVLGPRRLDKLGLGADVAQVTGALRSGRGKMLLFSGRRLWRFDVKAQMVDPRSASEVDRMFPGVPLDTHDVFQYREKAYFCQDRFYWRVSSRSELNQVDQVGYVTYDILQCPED
Nature of the series: MMP-9 catalytic activity with fluorogenic peptide. To be noted: 10 μM fluorogenic peptide, monitored over 2 hours. The format is biochemical. The procedure: Recombinant proMMP-9 protein was purified and incubated overnight in a 37° C. water bath in TNC buffer+1 mM APMA to artificially activate the protein.

T1 sequence (P14780 20-707 limits assumed): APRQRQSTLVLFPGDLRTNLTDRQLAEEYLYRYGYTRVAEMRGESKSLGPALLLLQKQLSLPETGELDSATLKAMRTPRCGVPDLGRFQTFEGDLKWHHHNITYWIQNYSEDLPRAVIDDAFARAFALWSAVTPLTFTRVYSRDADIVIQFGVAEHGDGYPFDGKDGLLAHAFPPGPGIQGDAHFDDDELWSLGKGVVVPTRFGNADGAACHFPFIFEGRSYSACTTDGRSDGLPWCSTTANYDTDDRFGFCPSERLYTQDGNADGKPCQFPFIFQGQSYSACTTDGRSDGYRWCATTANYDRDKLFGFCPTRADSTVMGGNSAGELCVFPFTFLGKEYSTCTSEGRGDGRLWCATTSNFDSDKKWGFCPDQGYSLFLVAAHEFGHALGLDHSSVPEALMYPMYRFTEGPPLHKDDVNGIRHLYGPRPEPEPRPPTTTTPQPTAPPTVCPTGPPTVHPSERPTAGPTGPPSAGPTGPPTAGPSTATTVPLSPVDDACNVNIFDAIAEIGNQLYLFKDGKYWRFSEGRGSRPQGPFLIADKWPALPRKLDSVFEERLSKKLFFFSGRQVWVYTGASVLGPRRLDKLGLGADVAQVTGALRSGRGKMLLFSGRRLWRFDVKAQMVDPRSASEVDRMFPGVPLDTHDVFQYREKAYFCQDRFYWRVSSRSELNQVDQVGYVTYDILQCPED

For the molecule `CCCc1cc(=O)nc(SCC(=O)Nc2ccccc2)[nH]1` [Compound 1b, 2-(4-Oxo-6-propyl-1,4-dihydropyrimidin-2-ylthio)-N-phenylacetamide], the melting point (in general, the temperature of the solid-liquid transition) was 170 °C (dec.). For the same molecule, testing at 50 µM in series [1] gave an inhibition of 12 ± 3%. For the same molecule, on proMMP-9, the Kd (usually the constant that tells how readily two partners part at equilibrium) was found to be 4500 ± 600 nM.
The like results for `CCCc1cc(=O)nc(SCC(=O)Nc2ccc(F)cc2)[nH]1` [Compound 1c, N-(4-Fluorophenyl)-2-(4-oxo-6-propyl-1,4-dihydropyrimidin-2-ylthio)acetamide] were, in that order, 191 to 194 °C, 29 ± 4% and 3800 ± 600 nM.
The like results for `CCCc1cc(=O)nc(SCC(=O)Nc2nc3ccccc3[nH]2)[nH]1` [Compound 1d, N-(1H-benzo[d]imidazol-2-yl)-2-(4-oxo-6-propyl-1,4-dihydropyrimidin-2-ylthio)acetamide] were, in that order, 217 °C (dec.), 61 ± 2% and 1200 ± 200 nM.
For the molecule `CCCc1cc(=O)nc(SCC(=O)N(C)c2ccccc2)[nH]1` [Compound 1f, 2-(4-Oxo-6-propyl-1,4-dihydropyrimidin-2-ylthio)-N(methyl)-phenylacetamide, reference compound], the “% Inhibition of proMMP9-Mediated Migration at 50 μM” value in series [1] is reported as 2 ± 6%. For the same molecule, the “localization of MMP-9 on the cell surface” value in series [2] was “did not disrupt the localization of MMP-9 on the cell surface”. In addition, in the series with HT1080 cells, the cellular adhesion entry was “no affect on cell adhesion”.
For the molecule `CCCc1cc(=O)nc(SCCCC(=O)Nc2ccc(OC(F)F)cc2)[nH]1` [Compound 2a, N-(4-Difluoromethoxyphenyl)-4-(4-oxo-6-propyl-1,4-dihydropyrimidin-2-ylthio)butanamide], the inhibition (commonly the drop in the measured response relative to a control, in per cent) at 50 µM in series [1] was 63 ± 4%. Moreover, the Kd on proMMP-9 stood at 1000 ± 200 nM.
With `CCCc1cc(=O)nc(SCCCC(=O)Nc2ccc(F)cc2)[nH]1` [Compound 2c, N-(4-Fluorophenyl)-4-(4-oxo-6-propyl-1,4-dihydropyrimidin-2-ylthio)butanamide], the melting point is 180 to 182 °C. In series [1], this molecule returned an inhibition at 50 µM of 68 ± 3%. Besides, the Kd at proMMP-9 came out at 910 ± 100 nM.
Regarding `O=C(CCCSc1nc2c(c(=O)[nH]1)CCCC2)Nc1ccc(OC(F)F)cc1` [Compound 3a, N-(4-Difluoromethoxyphenyl)-4-(4-oxo-3,4,5,6,7,8-hexahydroquinazolin-2-ylthio)butanamide], the melting point fell in the range of 197 to 198 °C. The molecule further displayed an inhibition at 50 µM in series [1] of 74 ± 2%. Further, at proMMP-9, the dissociation constant Kd was found to be 600 ± 100 nM.
Take `O=C(CCCSc1nc2c(c(=O)[nH]1)CCCC2)Nc1ccccc1` [Compound 3b, 4-(4-Oxo-3,4,5,6,7,8-hexahydroquinazolin-2-ylthio)-N-phenylbutanamide]: in series [1], testing at 50 µM gave an inhibition of 76 ± 1%. The equilibrium dissociation constant (Kd) on proMMP-9 was 500 ± 100 nM.
`O=C(CCCSc1nc2c(c(=O)[nH]1)CCCC2)Nc1nc2ccccc2[nH]1` [Compound 3d, N-(1H-Benzo[d]imidazol-2-yl)-4-(4-oxo-3,4,5,6,7,8-hexahydroquinazolin-2-ylthio)butanamide] yielded a melting point above 230 °C. In series [1], this molecule registered an inhibition at 50 µM of 77 ± 2%. Also, the equilibrium dissociation constant (Kd) at proMMP-9 was determined as 500 ± 200 nM.
The like results for `O=C(CCCSc1nc2ccccc2c(=O)[nH]1)Nc1ccc(OC(F)F)cc1` [Compound 4a, N-(4-(Difluoromethoxy)phenyl)-4-(4-oxo-3,4-dihydroquinazolin-2-ylthio)butanamide] were, in that order, 210 to 211 °C, 78 ± 3% and 500 ± 100 nM.
Turning to `O=C(CCCSc1nc2ccccc2c(=O)[nH]1)Nc1ccccc1` [Compound 4b, 4-(4-Oxo-3,4-dihydroquinazolin-2-ylthio)-N-phenylbutanamide], the inhibition at 50 µM in series [1] was found to be 64 ± 4%. The equilibrium dissociation constant (Kd) at proMMP-9 was 800 ± 100 nM.
As for `O=C(CCCSc1nc2ccccc2c(=O)[nH]1)Nc1ccc(F)cc1` [Compound 4c, N-(4-Fluorophenyl)-4-((4-oxo-3,4-dihydroquinazolin-2-yl)thio)butanamide], the melting point was 216 to 217 °C. The molecule further returned an inhibition at 50 µM in series [1] of 73 ± 2%. Besides, on proMMP-9, the Kd was 640 ± 60 nM.
In turn, `O=C(CCCSc1nc2ccccc2c(=O)[nH]1)Nc1nc2ccccc2[nH]1` [Compound 4d, N-(1H-Benzo[d]imidazol-2-yl)-4-(4-oxo-3,4-dihydroquinazolin-2-ylthio)butanamide] yielded a melting point above 230 °C. The same molecule returned an inhibition at 50 µM in series [1] of 81 ± 3%. Moreover, the Kd on proMMP-9 is 300 ± 100 nM.
`CCCCCCNC(=O)CCCSc1nc2ccccc2c(=O)[nH]1` [Compound 4e, N-Hexyl-4-(4-oxo-3,4-dihydroquinazolin-2-ylthio)butanamide]: the inhibition at 50 µM in series [1] stood at 56 ± 1%. Further, the Kd on proMMP-9 amounted to 900 ± 300 nM.
For the molecule `CN[C@@H]1C[C@H]2O[C@@](C)([C@@H]1OC)n1c3ccccc3c3c4c(c5c6ccccc6n2c5c31)C(=O)NC4` [STS, staurosporine, reference compound], the cell death result in series [3] was “Significant cell death”.
Take `CNC(=O)[C@@H](NC(=O)[C@H](CC(C)C)[C@H](O)C(=O)NO)C(C)(C)C` [marimastat, reference compound]: the “formation of focal adhesion contact sites” value in series [4] is recorded as “did not prevent the formation of focal adhesion contact sites”. In series [5], the “inhibition of MMP-9 catalytic activity” value is on record as “no substrate cleavage was observed”. For the same molecule, the cellular adhesion result in the series with HT1080 cells is given as “no observable effect on cell attachment”.
